ChEMBL document CHEMBL5052842, “Pharmaceutical compounds and their use as inhibitors of ubiquitin specific protease 19 (usp19)” (2020)

Target: T1, Ubiquitin carboxyl-terminal hydrolase 19 (Homo sapiens, UniProt O94966)
T1 sequence (O94966 whole entry): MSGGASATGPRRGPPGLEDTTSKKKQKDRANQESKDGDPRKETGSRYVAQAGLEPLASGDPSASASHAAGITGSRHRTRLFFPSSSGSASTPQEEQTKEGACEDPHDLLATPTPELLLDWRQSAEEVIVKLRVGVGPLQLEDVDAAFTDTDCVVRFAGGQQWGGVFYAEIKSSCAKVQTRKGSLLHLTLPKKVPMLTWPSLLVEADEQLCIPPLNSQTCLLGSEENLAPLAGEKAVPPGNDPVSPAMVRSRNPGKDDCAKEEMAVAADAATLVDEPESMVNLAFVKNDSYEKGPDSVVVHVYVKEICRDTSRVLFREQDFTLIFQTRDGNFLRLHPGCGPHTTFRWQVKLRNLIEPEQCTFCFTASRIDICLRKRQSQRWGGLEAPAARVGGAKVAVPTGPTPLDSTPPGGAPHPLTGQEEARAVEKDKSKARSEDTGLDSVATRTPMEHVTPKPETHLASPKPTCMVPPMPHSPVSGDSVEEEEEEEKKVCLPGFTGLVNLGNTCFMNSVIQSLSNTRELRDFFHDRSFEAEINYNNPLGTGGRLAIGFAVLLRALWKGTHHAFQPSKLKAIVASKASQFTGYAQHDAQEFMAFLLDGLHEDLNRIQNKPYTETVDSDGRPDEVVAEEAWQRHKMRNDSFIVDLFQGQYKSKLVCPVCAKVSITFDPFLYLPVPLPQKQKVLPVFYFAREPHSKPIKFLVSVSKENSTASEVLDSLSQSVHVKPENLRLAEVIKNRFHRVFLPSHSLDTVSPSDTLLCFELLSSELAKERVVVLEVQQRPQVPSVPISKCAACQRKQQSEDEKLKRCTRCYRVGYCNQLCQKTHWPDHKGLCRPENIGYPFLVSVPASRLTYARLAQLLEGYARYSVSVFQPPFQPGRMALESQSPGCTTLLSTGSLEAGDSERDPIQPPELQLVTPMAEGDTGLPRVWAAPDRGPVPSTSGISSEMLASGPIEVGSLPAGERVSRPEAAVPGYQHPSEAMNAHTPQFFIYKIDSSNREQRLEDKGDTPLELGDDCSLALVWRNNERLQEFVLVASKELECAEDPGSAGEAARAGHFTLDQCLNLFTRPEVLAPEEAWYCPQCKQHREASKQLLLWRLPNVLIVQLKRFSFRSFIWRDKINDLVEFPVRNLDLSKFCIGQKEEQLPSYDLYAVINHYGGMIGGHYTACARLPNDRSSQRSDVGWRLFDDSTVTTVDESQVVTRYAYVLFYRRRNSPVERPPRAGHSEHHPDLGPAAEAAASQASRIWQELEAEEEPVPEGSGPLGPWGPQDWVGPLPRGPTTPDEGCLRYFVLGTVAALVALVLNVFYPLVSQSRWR
Assay: Inhibition of C-terminal His6-tagged recombinant human USP19 using iso-peptide ubiquitin-Lys-TAMRA as substrate incubated for 30 mins and measured after 90 mins by fluorescent polarization assay

SMILES	IC50 [nM]
COc1ccccc1-c1cc(=O)n(C[C@]2(O)CCN(C(=O)N3CCNC[C@H]3c3ccccc3)CC23CCCC3)cn1	< 500
O=C(N1CC[C@@](O)(Cn2cnc(Cl)cc2=O)C2(CCCC2)C1)N1CCOC[C@H]1c1ccccc1	< 500
O=C(NCC1CC(F)(F)C1)N1CC[C@@](O)(Cn2cnc(-c3ccccc3)cc2=O)C2(CCCC2)C1	< 500
O=C(N1CCC(O)(Cn2cnc(-c3ccccc3)cc2=O)C2(CCCCC2)C1)N1CCOC[C@H]1c1ccccc1 (some centres not stated)	< 500
O=C(N1CC[C@@](O)(Cn2ccc(-c3ccccc3F)cc2=O)C2(CCCC2)C1)N1CCNC[C@H]1c1cccc(F)c1	< 500
COc1ccc(F)cc1-c1cc(=O)n(C[C@]2(O)CCN(C(=O)N3CCNC[C@H]3c3ccccc3)CC23CCCC3)cn1	< 500
C[C@H](CC1CCCCC1)C(=O)N1CCC(O)(Cn2cnc3cc(F)c(F)cc3c2=O)C2(CCCC2)C1 (some centres not stated)	< 500
Cn1ccc(-c2cc(=O)n(C[C@]3(O)CCN(C(=O)N4CCNC[C@H]4c4ccccc4)CC34CCCC4)cn2)n1	< 500
O=C(N1CC[C@@](O)(Cn2cnc(-c3ccccc3)cc2=O)C2(CCCC2)C1)N1CCNCC1c1ccc(F)c(F)c1 (some centres not stated)	< 500
CN(C)C(=O)c1cn(CC2(O)CCN(C(=O)N(C)Cc3ccccc3)CC23CCCC3)c(=O)cc1-c1ccccc1 (configuration not stated)	< 500
O=C(N1CCC(O)(Cn2cnc(-c3ccccc3)cc2=O)C2(CCCC2)C1)N1CCOCC1c1cccs1 (configuration not stated)	< 500
O=C(N1CC[C@@](O)(Cn2cnc(-c3ccccc3)cc2=O)C2(CCCC2)C1)N1CCNCC1c1ccsc1 (some centres not stated)	< 500
O=C(N1CC[C@@](O)(Cn2cnc(-c3ccccc3F)cc2=O)C2(CCCC2)C1)N1CCNC[C@H]1c1cc(F)ccc1F	< 500
O=C(N1CC[C@@](O)(Cn2cnc(-c3ccccc3)cc2=O)C2(CCCC2)C1)N1CCOC[C@H]1c1ccccc1	< 500
C[C@H](CC1CCCCC1)C(=O)N1CCC(O)(CN2CCN(C(=O)OC(C)(C)C)CC2=O)C2(CCCC2)C1 (some centres not stated)	< 500
O=C(N1CC[C@@](O)(Cn2cnc(N3CC4CC4C3)cc2=O)C2(CCCC2)C1)N1CCNC[C@H]1c1ccccc1 (some centres not stated)	< 500
CSc1cn(CC2(O)CCN(C(=O)N3CCNC[C@H]3c3ccccc3)CC23CCCC3)c(=O)cc1-c1ccccc1 (some centres not stated)	< 500
O=C(N1CC[C@@](O)(Cn2cnc(-c3ccccc3)cc2=O)C2(CCCC2)C1)N1CCC[C@H]1c1ccccc1	< 500
O=C(N1CC[C@@](O)(Cn2cnc(-c3ccc(OC4CC4)cc3)cc2=O)C2(CCCC2)C1)N1CCNC[C@H]1c1ccccc1	< 500
O=C(N1CCC(O)(Cn2cnc3cc(F)c(F)cc3c2=O)C2(CCCC2)C1)N1CCNC[C@H]1c1ccccc1 (some centres not stated)	< 500
Cn1nccc1-c1cc(=O)n(C[C@]2(O)CCN(C(=O)N3CCOC[C@H]3c3ccc(F)cc3)CC23CCCC3)cn1	< 500

SMILES	IC50 [nM]
O=C(N1CC[C@@](O)(Cn2cnc(-c3ccccc3OC(F)F)cc2=O)C2(CCCC2)C1)N1CCNC[C@H]1c1ccccc1	< 500
Cn1nccc1-c1cc(=O)n(C[C@]2(O)CCN(C(=O)N3CCNC[C@H]3c3ccccc3)CC23CCCC3)cn1	< 500
O=C(N1CC[C@@](O)(Cn2cnc(-c3ccccc3)cc2=O)C2(CCCC2)C1)N1CCNC[C@H]1c1cccc(F)c1	< 500
COC(=O)c1cn(CC2(O)CCN(C(=O)[C@H](C)CC3CCCCC3)CC23CCCC3)c(=O)cn1 (some centres not stated)	< 500
CSc1ncc2c(=O)n(CC3(O)CCN(C(=O)[C@H](C)CC4CCCCC4)CC34CCCC4)ccc2n1 (some centres not stated)	< 500
CS(=N)(=O)c1cn(CC2(O)CCN(C(=O)N3CCOC[C@H]3c3ccccc3)CC23CCCC3)c(=O)cc1-c1ccccc1 (some centres not stated)	< 500
O=C(N1CC[C@@](O)(Cn2cnc(Cl)cc2=O)C2(CCCC2)C1)N1CCOC[C@H]1c1ccc(F)cc1	< 500
CC(=O)N1CCN(CC2(O)CCN(C(=O)[C@H](C)CC3CCCCC3)CC23CCCC3)C(=O)C1 (some centres not stated)	< 500
O=C1CN(c2ccccc2)CCN1CC1(O)CCN(C(=O)NCc2ccccc2)CC12CCCC2 (configuration not stated)	< 500
O=C(N1CC[C@@](O)(Cn2cnc(-c3ccccc3OC3CC3)cc2=O)C2(CCCC2)C1)N1CCNC[C@H]1c1ccccc1	< 500
CSc1ncc2c(=O)n(CC3(O)CCN(C(=O)[C@H](C)CC(F)(F)F)CC34CCCC4)ccc2n1 (some centres not stated)	< 500
Cn1nccc1-c1cc(=O)n(C[C@]2(O)CCN(C(=O)N3CCOC[C@H]3c3ccccc3)CC23CCCC3)cn1	< 500
O=C(N1CCC(O)(Cn2ncc(-c3ccccc3)cc2=O)C2(CCCC2)C1)N1CCOC[C@H]1c1ccccc1 (some centres not stated)	< 500
Cc1ccccc1-c1cc(=O)n(C[C@]2(O)CCN(C(=O)N3CCNC[C@H]3c3ccccc3)CC23CCCC3)cn1	< 500
O=C(N1CC[C@@](O)(Cn2cnc(-c3ccccc3C(F)F)cc2=O)C2(CCCC2)C1)N1CCNC[C@H]1c1ccccc1	< 500
CS(=O)(=O)c1cn(CC2(O)CCN(C(=O)N3CCNC[C@H]3c3ccccc3)CC23CCCC3)c(=O)cc1-c1ccccc1 (some centres not stated)	< 500
Cc1cccc(-c2cc(=O)n(C[C@]3(O)CCN(C(=O)N4CCNC[C@H]4c4cc(F)ccc4F)CC34CCCC4)cn2)c1	< 500
O=C(N1CC[C@@](O)(Cn2cnc(-c3ccccc3)cc2=O)C2(CCCC2)C1)N1CCNCC1c1ccc(C(F)(F)F)cc1 (some centres not stated)	< 500
O=C(N1CC[C@@](O)(Cn2cnc(N3CCC(F)CC3)cc2=O)C2(CCCC2)C1)N1CCNC[C@H]1c1ccccc1	< 500
N[C@H]1CCN(C(=O)N2CC[C@@](O)(Cn3cnc(-c4ccccc4)cc3=O)C3(CCCC3)C2)[C@H](c2ccccc2)C1	< 500
O=C(N1CC[C@@](O)(Cn2cnc(-c3ccccc3)cc2=O)C2(CCCC2)C1)N1CCNCC1c1ccccc1F (some centres not stated)	< 500

SMILES	IC50 [nM]
CN(C)C(=O)c1cn(CC2(O)CCN(C(=O)N3CCC(C(F)(F)F)C3)CC23CCCC3)c(=O)cc1-c1ccccc1 (configuration not stated)	< 500
Cn1nc(C(F)(F)F)cc1-c1cc(=O)n(C[C@]2(O)CCN(C(=O)N3CCNC[C@H]3c3ccccc3)CC23CCCC3)cn1	< 500
C[C@H](CC1CCCCC1)C(=O)N1CCC(O)(Cn2cc([S+](C)[O-])c(Cl)cc2=O)C2(CCCC2)C1 (some centres not stated)	< 500
C[C@H](CC1CCCCC1)C(=O)N1CCC(O)(Cn2cnc3ccc(Cl)cc3c2=O)C2(CCCC2)C1 (some centres not stated)	< 500
C[C@@]1(c2ccccc2)CNCCN1C(=O)N1CC[C@@](O)(Cn2cnc(-c3ccccc3)cc2=O)C2(CCCC2)C1	< 500
N[C@@H]1CCN(C(=O)N2CC[C@@](O)(Cn3cnc(-c4ccccc4)cc3=O)C3(CCCC3)C2)[C@H](c2ccccc2)C1	< 500
COc1ccccc1-c1cc(=O)n(C[C@]2(O)CCN(C(=O)N3CCNC[C@H]3c3cc(F)ccc3F)CC23CCCC3)cn1	< 500
O=C1CN(C(=O)N2CC[C@@](O)(Cn3cnc(-c4ccccc4)cc3=O)C3(CCCC3)C2)[C@H](c2ccccc2)CN1	< 500
O=C(N1CCC(O)(Cn2cnc3c(cnn3C3CC3)c2=O)C2(CCCC2)C1)N1CCNC[C@H]1c1ccccc1 (some centres not stated)	< 500
Cc1ccc(-c2cc(=O)n(C[C@]3(O)CCN(C(=O)N4CCNC[C@H]4c4ccccc4)CC34CCCC4)cn2)cc1	< 500
O=C(N1CC[C@@](O)(Cn2cnc(-c3ccccc3)cc2=O)C2(CCCC2)C1)N1CCS(=O)(=O)C[C@H]1c1cc(F)ccc1F	< 500
O=C(N1CC[C@@](O)(Cn2cnc(N3CCC(F)(F)C3)cc2=O)C2(CCCC2)C1)N1CCNC[C@H]1c1ccccc1	< 500
C[C@H](CC1CCCCC1)C(=O)N1CCC(O)(Cn2cnc3ccc(F)cc3c2=O)C2(CCCC2)C1 (some centres not stated)	< 500
O=C(NCc1ccco1)N1CC[C@@](O)(Cn2cnc(-c3ccccc3)cc2=O)C2(CCCC2)C1	< 500
O=C(N1CC[C@@](O)(Cn2ccc(C3CC3)cc2=O)C2(CCCC2)C1)N1CCNC[C@H]1c1ccccc1	< 500
CN(C)C(=O)c1cn(C[C@]2(O)CCN(C(=O)N3CCOC[C@H]3c3ccccc3)CC2(C)C)c(=O)cc1-c1ccccc1	< 500
O=C(NCc1ccccc1)N1CCC(O)(Cn2cnc(-c3ccccc3)cc2=O)C2(CCCC2)C1 (configuration not stated)	< 500
O=C(N1CC[C@@](O)(Cn2cnc(-c3ccccc3)cc2=O)C2(CCCC2)C1)N1CCNC[C@H]1c1ccc(F)cc1	< 500
O=C(N1CC[C@@](O)(Cn2cnc(-c3ccccc3F)cc2=O)C2(CCCC2)C1)N1CCNC[C@H]1c1cccc(F)c1	< 500
C[C@H](CC1CCCCC1)C(=O)N1CCC(O)(Cn2cc(S(C)(=O)=O)c(Cl)cc2=O)C2(CCCC2)C1 (some centres not stated)	< 500
